These are literature values, as cited in patent US12239131B2, “Plant growth regulator concentrate and use thereof” (FINE AGROCHEMICALS LIMITED, priority 2018, dated 2025).

As usually defined, the pKa is the negative logarithm of the acid dissociation constant. Turning to `CC1(C)C2CCC1(CS(=O)(=O)O)C(=O)C2` (stereo not drawn) [Camphor sulfonic acid], the pKa is 1.2.

For `CC(O)(P(=O)(O)O)P(=O)(O)O` [HEDP, (1-hydroxyethane-1,1-diyl)bis(phosphonic acid)], the pKa was 1.35.

As to `O=S(=O)(O)CCO` [HESA, 2-hydroxyethyl sulphonic acid], the pKa is on record as −1.4.
